From patent publication US9745305B2, “Modulators of methyl modifying enzymes, compositions and uses thereof” (Constellation Pharmaceuticals, Inc., priority 2013, dated 2017)

Experiments:
EZH2 = EZH2 (Homo sapiens, UniProt Q15910); test: EZH2 Assay (3H SAM methyl transfer, rPRC2, FlashPlate); type: biochemical; settings: rPRC2, biotinylated oligonucleosomes, 0.2 μM 3H SAM, 2 nM EZH2
Description: (§1) EZH2 Assay: Assays were carried out by mixing rPRC2 together with biotinylated oligonucleosome substrates in the presence of the radio-labeled enzyme co-factor, S-adenosyl-L-methionine (^3H SAM) (Perkin Elmer) and monitoring the enzymatically mediated transfer of tritiated methyl groups from ^3H SAM to histone lysine residues. The amount of resulting tritiated methyl histone product was measured by first capturing the biotinylated oligonucleosomes in streptavidin (SAV) coated FlashPlates (Perkin Elmer), followed by a wash step to remove unreacted ^3H SAM, and then counting on a TopCount NXT 384 well plate scintillation counter (Perkin Elmer). The final assay conditions for EZH2 were as follows: 50 mM Tris Buffer pH 8.5, 1 mM DTT, 69 μM Brij-35 detergent, 5.0 mM MgCl2, 0.1 mg/mL BSA, 0.2 μM ^3H SAM, 0.2 μM biotinylated oligonucleosomes, 3.6 μM H3K27me3 peptide and 2 nM EZH2.
(§2) Compound IC50 measurements were obtained as follows: Compounds were first dissolved in 100% DMSO as 10 mM stock solutions. Ten point dose response curves were generated by dispensing varying amounts of the 10 mM compound solution in 10 wells of the 384 well plate (Echo; Labcyte), pure DMSO was then used to backfill the wells to insure all wells have the same amount of DMSO. A 12.5 μL volume of the HMT enzyme, H3K27me3 peptide and oligonucleosome substrate in assay buffer was added to each well of the assay plate using a Multidrop Combi (ThermoFisher). Compounds were pre-incubated with the enzyme for 20 min, followed by initiation of the methyltransferase reaction by addition of 12.5 μL of ^3H SAM in assay buffer (final volume=25 μL). The final concentrations of compounds ranged from a top default concentration of 80 μM down to 0.16 μM in ten 2-fold dilution steps. Reactions were carried out for 60 minutes and quenched with 20 μL per well of 1.96 mM SAH, 50 mM Tris pH 8.5, 200 mM EDTA. Stopped reactions were transferred to SAV coated Flashplates (Perkin Elmer), incubated for 120 min, washed with a plate washer, and then read on the TopCount NXT (1.0 min/well) to measure the amount of methyl histone product formed during the reaction. The amount of methyl histone product was compared with the amount of product formed in the 0% and 100% inhibition control wells allowing the calculation of % Inhibition in the presence of the individual compounds at various concentrations. IC50's were computed using a 4 parameter fit non-linear curve fitting software package (XLFIT, part of the database package, ActivityBase (IDBS)) where the four parameters were IC50, Hill slope, pre-transitional baseline (0% INH), and post-transitional baseline (100% INH); with the latter two parameters being fixed to zero and 100%, respectively, by default.

[1] = test system: H3K27me3 mark in Hela cells expressing wild type EZH2; test: H3K27me3 MSD Hela Assay; type: cell-based; settings: read-out: H3K27me3_MSD_HeLa (EC50)
Description: H3K27me3 MSD Hela Assay. Trypsinized HeLa cells were counted and diluted in 10% DMEM (Life Technologies, Cat. #10569) to 5000 cells/75 μL. Seventy-five μL of cells were place in each well of a 96-well flat-bottomed plate and incubated at 37° C. for 4 hours. Twenty-five μL of test compound (at various concentrations) was added to the cells and incubation continued at 37° C. for 96 hours. Media was then removed and the cells rinsed once with ice cold PBS. Forty μL of ice-cold MSD Buffer AT (10 mM HEPES, pH 7.9, 5 mM MgCl2, 0.25M sucrose, Benzonase (1:10000), 1% Triton X-100 supplemented with fresh 1× Protease Inhibitor cocktail and 1 mM 4-(2-Aminoethyl)benzenesulfonyl fluoride hydrochloride (AEBSF)) was added to each well and the plates placed on ice for 30 minutes. Ten μL of 5M NaCl was then added to each well and incubation on ice continued for another 15 minutes. The material in each well was suspended pipetting up and down and then transferred to a new 96 well plate. The emptied wells were rinsed with 150 uL ice-cold 20 mM Tris pH 7.5, 1 mM EDTA, 1 mM EGTA, supplemented with fresh 1× Protease Inhibitor cocktail and 1 mM AEBSF (“NO salt NO detergent buffer) and transferred to the respective wells in the new plate. Three hundred μL of NO Salt NO detergent buffer was then added to each well of lysates and the plates frozen at −80° C.
On the same day, an appropriate number of MSD standard bind 96-well plates were coated with 30 μL/well of total H3 capture antibody (Millipore, Cat # MAB3422) at 1 μg/mL concentration in PBS. The antibody solution was evenly distributed first by tapping gently on the sides of the plates and then by shaking the plates for a few minutes at 1000 rpm. Antibody coated plates were stored at 4° C. overnight.
The next day the lysates are thawed to RT. The antibody coated MSD plates are washed 3× with TBS-T (Tris-buffered saline (Fisher Scientific, Cat #BP2471-1)+0.2% Tween-20). One-hundred fifty μL of 5% Blocker A in TBS-T is added to each well. The wells are covered and shaken on a shaker at RT for one hour. The Blocker A step is repeated a second time. After removing the blocker, 25 μL of cell lysate is transferred into each antibody coated well. The plates are shaken for 2 hours at RT, the lysate removed and the plates again washed with Blocker A in TBS-T. Twenty-five μL of appropriate freshly prepared antibody mix (including both primary and secondary antibodies) is added to each well and the plates shaken for 1 hour at RT.
Both H3 antibodies were obtained from Cell Signalling (Cat #s 4499 and 9733). The goat anti-rabbit antibody was obtained from Meso-Scale Discovery (Cat #R32AB-1).
The antibody mix was then removed and the wells washed with Blocker A. One hundred-fifty μL of freshly prepared 1×MSD Read Buffer (Meso-Scale Discovery; Cat #R927C-2) was then added to each well and the plates read on a MSD Sector 2400 Plate Reader.
(§3) Data was analyzed using Assay Assistant (Constellation Pharmaceuticals In-house product) and Activity Base (IDBS Ltd, Surrey, UK) template. Data files were imported to Assay Assistant and assay conditions were specified. A unique Analysis ID was created and the data files exported to Activity Base. An analysis template was created on Activity Base to measure dose-dependent inhibition of H3K27me3 mark and cell viability respectively. Readout of DMSO wells were used to normalize the data. Resulting curves were fitted using Activity base software Model 205 (IDBS Ltd, Surrey, UK). The data was checked for quality, validated and integrated in excel format using SARview (IDBS Ltd, Surrey, UK).

Y641N EZH2 = Y641N EZH2 (Homo sapiens, UniProt Q15910, Y641N); test: Assay for Y641N EZH2 (as the EZH2 assay, H3K27Me2 oligonucleosomes as substrate); type: biochemical; settings: Y641N EZH2 mutant, reconstituted H3K27Me2 oligonucleosomes as substrate
Sequence of Y641N EZH2 (Q15910 whole entry Y641N): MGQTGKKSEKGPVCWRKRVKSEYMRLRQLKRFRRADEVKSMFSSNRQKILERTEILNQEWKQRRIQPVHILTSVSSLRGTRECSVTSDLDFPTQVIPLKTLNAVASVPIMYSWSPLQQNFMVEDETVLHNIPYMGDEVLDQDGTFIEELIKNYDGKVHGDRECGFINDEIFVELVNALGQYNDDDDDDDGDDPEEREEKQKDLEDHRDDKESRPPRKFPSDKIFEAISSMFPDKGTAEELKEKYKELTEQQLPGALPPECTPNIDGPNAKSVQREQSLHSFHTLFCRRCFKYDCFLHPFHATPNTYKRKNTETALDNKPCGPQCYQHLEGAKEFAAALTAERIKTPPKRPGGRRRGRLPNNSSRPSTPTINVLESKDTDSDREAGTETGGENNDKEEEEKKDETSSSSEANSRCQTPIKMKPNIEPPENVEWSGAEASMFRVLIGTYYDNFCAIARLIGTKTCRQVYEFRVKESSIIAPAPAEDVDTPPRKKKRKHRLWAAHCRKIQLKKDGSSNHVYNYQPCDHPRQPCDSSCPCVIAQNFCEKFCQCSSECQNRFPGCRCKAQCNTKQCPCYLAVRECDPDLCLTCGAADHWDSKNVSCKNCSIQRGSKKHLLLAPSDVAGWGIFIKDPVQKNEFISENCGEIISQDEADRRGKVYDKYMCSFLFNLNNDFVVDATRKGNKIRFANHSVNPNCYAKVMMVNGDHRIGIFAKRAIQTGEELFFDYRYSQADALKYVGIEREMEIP
Sequence of Y641N EZH2 (O75530 whole entry partner): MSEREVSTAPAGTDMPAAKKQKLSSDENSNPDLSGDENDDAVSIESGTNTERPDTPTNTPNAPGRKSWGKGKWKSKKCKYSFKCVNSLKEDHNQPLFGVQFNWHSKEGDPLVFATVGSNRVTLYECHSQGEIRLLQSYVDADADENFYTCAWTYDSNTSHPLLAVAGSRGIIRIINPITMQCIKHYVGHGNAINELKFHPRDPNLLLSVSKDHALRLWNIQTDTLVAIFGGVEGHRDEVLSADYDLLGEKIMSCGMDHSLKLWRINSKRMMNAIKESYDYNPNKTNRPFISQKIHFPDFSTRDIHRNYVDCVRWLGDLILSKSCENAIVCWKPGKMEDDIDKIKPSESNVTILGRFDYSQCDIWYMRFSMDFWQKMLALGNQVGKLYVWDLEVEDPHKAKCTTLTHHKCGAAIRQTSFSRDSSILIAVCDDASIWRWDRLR
Sequence of Y641N EZH2 (Q15022 whole entry partner): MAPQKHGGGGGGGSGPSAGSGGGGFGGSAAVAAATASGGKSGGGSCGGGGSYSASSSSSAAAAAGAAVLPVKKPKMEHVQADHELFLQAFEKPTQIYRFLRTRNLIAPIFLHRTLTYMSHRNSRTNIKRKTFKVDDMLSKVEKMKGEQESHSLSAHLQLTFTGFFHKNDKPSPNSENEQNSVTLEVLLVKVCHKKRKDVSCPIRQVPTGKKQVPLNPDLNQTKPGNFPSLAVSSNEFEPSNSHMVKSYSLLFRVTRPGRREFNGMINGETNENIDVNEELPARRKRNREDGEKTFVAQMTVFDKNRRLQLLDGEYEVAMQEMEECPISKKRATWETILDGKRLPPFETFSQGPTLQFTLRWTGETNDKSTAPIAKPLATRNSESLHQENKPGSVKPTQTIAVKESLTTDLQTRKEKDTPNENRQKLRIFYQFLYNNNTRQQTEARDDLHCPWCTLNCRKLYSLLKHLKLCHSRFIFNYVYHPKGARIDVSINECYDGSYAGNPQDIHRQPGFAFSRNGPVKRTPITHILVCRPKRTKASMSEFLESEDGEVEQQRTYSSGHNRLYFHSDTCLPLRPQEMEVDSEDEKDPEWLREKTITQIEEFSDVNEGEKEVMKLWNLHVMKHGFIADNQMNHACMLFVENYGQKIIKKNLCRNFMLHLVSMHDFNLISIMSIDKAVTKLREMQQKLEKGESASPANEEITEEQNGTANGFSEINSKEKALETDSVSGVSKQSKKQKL
Description: as §1, §2
Assay for Y641N EZH2 was performed as above using reconstituted H3K27Me2 oligonucleosomes as substrate.

[2] = test system: H3K27me3 mark in Hela cells expressing wild type EZH2; test: H3K27me3 Alpha Hela Assay (AlphaLISA); type: cell-based; settings: Homo sapiens, 72 hrs, read-out: H3K27me3_Alpha_HeLa (EC50)
Description: H3K27me3 Alpha Hela Assay (AlphaLISA). Ten different doses of each test compound (in a series of 3-fold dilutions) were plated in duplicate 384-well tissue culture treated plates (Catalog #781080; Greiner Bio One; Monroe, N.C.). Hela cells grown in culture were trypsinized and counted using a Countess® cell counter (Catalog # C10281; Life Technologies, Grand Island, N.Y.). Cell were diluted to 67,000 cells per mL in 10% DMEM (Catalog #10569-010 Life Technologies, Grand Island, N.Y.) and 15 μL (1,000 cells) were plated into each well using the Biotek MicroFlo™ Select Dispenser (BioTek Instruments, Inc. Vermont, USA),) of the 384-well plate. Plates were incubated at 37° C./5% CO2 for 72 hrs. One of the duplicate plates was processed for HeLa assay and the other for viability.
To the plate processed for AlphaLISA was added 5 μL per well Cell-Histone Lysis buffer (1×) (Catalog # AL009F1 Perkin Elmer; Waltham, Mass.) and the plate was incubated at RT for 30 minutes on a plate shaker with low speed (Model#4625-Q Thermo Scientific; Waltham, Mass.). Then, 10 μL per well Histone Extraction buffer (catalog # AL009F2; Perkin Elmer; Waltham, Mass.) was added and the plate further incubated at RT for 20 min on plate shaker with low speed. To each well was then added 10 μL per well of a 5× mix of anti-K27me3 acceptor beads plus Biotinylated anti-Histone H3 (C-ter) Antibody (diluted to 3 nM final) (Catalog #AL118 Perkin Elmer; Waltham, Mass.). Dilution of the acceptor beads and then anti-Histone H3 was with 1× Histone Detection buffer (Catalog # AL009F3 Perkin Elmer; Waltham, Mass.) which was produced diluted from the 10× stock provided. The plate was sealed with an aluminum plate sealer and incubated at 23° C. for 60 min. We then added 10 μL 5× solution of Streptavidin Donor beads (Catalog #6760002 Perkin Elmer; Waltham, Mass.) (20 μg/mL final in 1× Histone Detection Buffer), sealed the plate with Aluminum plate sealer and incubated at 23° C. for 30 min. The plates were then read using an EnVision-Alpha Reader (model #2104 Perkin Elmer; Waltham, Mass.).
as §3, with “Data from both assays was analyzed” for “Data was analyzed”

Sequence of EZH2 (Q15910 whole entry): as the sequence (Q15910 whole entry Y641N) above, with N641Y counted along it
Sequence of EZH2 (O75530 whole entry partner): as the sequence (O75530 whole entry partner) above
Sequence of EZH2 (Q15022 whole entry partner): as the sequence (Q15022 whole entry partner) above

| Structure (SMILES) | IC50 (EZH2) [nM] | EC50 ([1]; Homo sapiens, HeLa, 96 h) [nM] | IC50 (Y641N EZH2) [nM] | EC50 ([1]; 96 hours) [nM] | EC50 [2] [nM] |
| --- | --- | --- | --- | --- | --- |
| COc1cc(C)[nH]c(=O)c1CNC(=O)c1c(C)c(C(C)C2CC2)n2ncccc12 (racemic) [Compound 102, (±)-7-(1-cyclopropylethyl)-N-((4-methoxy-6-methyl-2-oxo-1,2-dihydropyridin-3-yl)methyl)-6-methylpyrrolo[1,2-b]pyridazine-5-carboxamide] | < 100 | 400 to 2000 | < 100 | – | – |
| COc1cc(C)[nH]c(=O)c1CNC(=O)c1c(C)c(C(C)N(C)S(C)(=O)=O)n2ncccc12 (racemic) [Compound 103, (±)-N-((4-methoxy-6-methyl-2-oxo-1,2-dihydropyridin-3-yl)methyl)-6-methyl-7-(1-(N-methylmethylsulfonamido)ethyl)pyrrolo[1,2-b]pyridazine-5-carboxamide] | < 100 | 400 to 2000 | 100 to 1000 | – | – |
| COc1cc(C)[nH]c(=O)c1CNC(=O)c1c(C)c(C(C)NS(C)(=O)=O)n2ncccc12 (racemic) [Compound 112, (±)-N-((4-methoxy-6-methyl-2-oxo-1,2-dihydropyridin-3-yl)methyl)-6-methyl-7-(1-(methylsulfonamido)ethyl)pyrrolo[1,2-b]pyridazine-5-carboxamide] | < 100 | 2000 to 10000 | 100 to 1000 | – | – |
| COc1cc(C)[nH]c(=O)c1CNC(=O)c1c(C)c(C(C)c2cccnc2)n2ncccc12 (racemic) [Compound 113, (±)-N-((4-methoxy-6-methyl-2-oxo-1,2-dihydropyridin-3-yl)methyl)-6-methyl-7-(1-(pyridin-3-yl)ethyl)pyrrolo[1,2-b]pyridazine-5-carboxamide] | < 100 | < 400 | < 100 | – | – |
| COc1cc(C)[nH]c(=O)c1CNC(=O)c1c(C)c(C(C)c2ccccc2)n2ncccc12 (single isomer, unassigned) [Compound 106, (R or S)-N-((4-methoxy-6-methyl-2-oxo-1,2-dihydropyridin-3-yl)methyl)-6-methyl-7-(1-phenylethyl)pyrrolo[1,2-b]pyridazine-5-carboxamide] | – | – | – | < 400 | – |
| CCN(C(C)c1c(C)c(C(=O)NCc2c(OC)cc(C)[nH]c2=O)c2cccnn12)S(C)(=O)=O (single isomer, unassigned) [Compound 107, (R or S)-7-(1-(N-ethylmethylsulfonamido)ethyl)-N-((4-methoxy-6-methyl-2-oxo-1,2-dihydropyridin-3-yl)methyl)-6-methylpyrrolo[1,2-b]pyridazine-5-carboxamide] | < 100 | – | 100 to 1000 | 2000 to 10000 | – |
| CCN(C(C)c1c(C)c(C(=O)NCc2c(OC)cc(C)[nH]c2=O)c2cccnn12)S(C)(=O)=O (single isomer, unassigned) [Compound 108, (R or S)-7-(1-(N-ethylmethylsulfonamido)ethyl)-N-((4-methoxy-6-methyl-2-oxo-1,2-dihydropyridin-3-yl)methyl)-6-methylpyrrolo[1,2-b]pyridazine-5-carboxamide] | < 100 | – | 100 to 1000 | 400 to 2000 | – |
| COc1cc(C)[nH]c(=O)c1CNC(=O)c1c(C)c(C(C)C2CCN(CC(C)(C)F)CC2)n2ncccc12 (stereo not shown) [Compound 144, 7-(1-(1-(2-fluoro-2-methylpropyl)piperidin-4-yl)ethyl)-N-((4-methoxy-6-methyl-2-oxo-1,2-dihydropyridin-3-yl)methyl)-6-methylpyrrolo[1,2-b]pyridazine-5-carboxamide] | < 100 | – | 100 to 1000 | – | < 400 |
